Values quoted from earlier work in patent US7025979B2, “Male contraceptive formulation comprising norethisterone” (Schering AG, priority 2000, dated 2006).

What was measured:
[1] = test system: spermatogenesis; conditions: use of the progestin; literature (Merrigiola et al, Bebb et al)
[2] = in higher doses; literature (Merrigiola et al, Bebb et al)

| Compound | suppression of spermatogenesis [1] | red blood cell count [2] |
| --- | --- | --- |
| CC(=O)O[C@]1(C(C)=O)CC[C@H]2[C@@H]3C=C(Cl)C4=CC(=O)[C@@H]5C[C@@H]5[C@]4(C)[C@H]3CC[C@@]21C [cyproterone acetate] | ineffective in the suppression of spermatogenesis | significant decreases in red blood cell count |
| C#C[C@]1(O)CC[C@H]2[C@@H]3CCC4=CC(=O)CC[C@@H]4[C@H]3CC[C@@]21CC [levonorgestrel] | – | significant decreases in red blood cell count |
